From US8399681B2, “Substituted aminothiazolone indazoles as estrogen related receptor-alpha modulators” (Janssen Pharmaceutica NV, priority 2009, dated 2013)

Biological target: T1, ERR1 (also known as ERR-α or ERR-1) (Homo sapiens, UniProt P11474)
T1 sequence (P11474 193-421 limits assumed): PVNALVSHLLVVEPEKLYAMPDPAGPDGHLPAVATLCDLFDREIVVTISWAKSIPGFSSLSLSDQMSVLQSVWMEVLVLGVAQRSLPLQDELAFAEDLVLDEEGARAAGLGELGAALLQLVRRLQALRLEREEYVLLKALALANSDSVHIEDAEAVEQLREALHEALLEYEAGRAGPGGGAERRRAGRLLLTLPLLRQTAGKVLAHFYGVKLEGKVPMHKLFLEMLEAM
Test: TR-FRET assay (disruption of co-activator peptide binding)
Format: biochemical
Conditions: 6His-tagged ERR1 LBD, GST-hSRC2 co-activator polypeptide; average of 3 independent experiments
In short: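 His6-ERR1 LBD (6 nM) with GST-SRC-2 peptide (6 nM), anti-GST Eu cryptate (30 nM) and anti-His XL665 (7.5 nM) in Tris pH 8/KCl/DTT/BSA buffer, equilibrated 4-18 h at 25 °C. Ex 340, em 615/665 nm; hyperbolic dose-response fit, mean of 3 experiments.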

SMILES | EC50 [nM]
O=C1N=C(N2CCC(C(=O)O)C2)S/C1=C\c1ccc2c(cnn2Cc2ccc(Cl)cc2C(F)(F)F)c1 (stereo not drawn) [Example 137, 1-{5-[1-(4-Chloro-2-trifluoromethyl-benzyl)-1H-indazol-5-ylmethylene]-4-oxo-4,5-dihydro-thiazol-2-yl}-pyrrolidine-3-carboxylic acid] | 14
NCC(=O)N1CCCN(C2=NC(=O)/C(=C/c3ccc4c(cnn4Cc4ccc(Cl)cc4C(F)(F)F)c3)S2)CC1 [Example 138, 2-[4-(2-Amino-acetyl)-[1,4]diazepan-1-yl]-5-[1-(4-chloro-2-trifluoromethyl-benzyl)-1H-indazol-5-ylmethylene]-thiazol-4-one] | 19
CC(C)(C)OC[C@@H]1CN(C2=NC(=O)/C(=C/c3ccc4c(cnn4Cc4ccc(C(F)(F)F)cc4C(F)(F)F)c3)S2)CCO1 [Example 143, 5-({1-[2,4-Bis(trifluoromethyl)benzyl]-1H-indazol-5-yl}methylidene)-2-[2(S)-(tert-butoxymethyl)morpholin-4-yl]-1,3-thiazol-4(5H)-one] | 56
O=C1N=C(N2CC3COC(=O)C3C2)S/C1=C\c1ccc2c(cnn2Cc2ccc(Cl)cc2C(F)(F)F)c1 (stereo not drawn) [Example 144, 5-{5-[1-(4-Chloro-2-trifluoromethyl-benzyl)-1H-indazol-5-ylmethylene]-4-oxo-4,5-dihydro-thiazol-2-yl}-hexahydro-furo[3,4-c]pyrrol-1-one] | 14
O=C(O)CC1CCN(C2=NC(=O)/C(=C/c3ccc4c(cnn4Cc4ccc(Cl)cc4C(F)(F)F)c3)S2)C1 (stereo not drawn) [Example 145, (1-{5-[1-(4-Chloro-2-trifluoromethyl-benzyl)-1H-indazol-5-ylmethylene]-4-oxo-4,5-dihydro-thiazol-2-yl}-pyrrolidin-3-yl)-acetic acid] | 21
O=C1N=C(N2CCS(=O)(=O)CC2)S/C1=C\c1ccc2c(cnn2Cc2ccc(Cl)cc2C(F)(F)F)c1 [Example 146, 5-[1-(4-Chloro-2-trifluoromethyl-benzyl)-1H-indazol-5-ylmethylene]-2-(1,1-dioxidothiomorpholin-4-yl)-thiazol-4-one] | 14
Cc1nnc(C)n1C1CCN(C2=NC(=O)/C(=C/c3ccc4c(cnn4Cc4ccc(Cl)cc4C(F)(F)F)c3)S2)CC1 [Example 147, 5-[1-(4-Chloro-2-trifluoromethyl-benzyl)-1H-indazol-5-ylmethylene]-2-[4-(3,5-dimethyl-[1,2,4]triazol-4-yl)-piperidin-1-yl]-thiazol-4-one] | 11
O=C1N=C(N2CCSCC2)S/C1=C\c1ccc2c(cnn2Cc2ccc(Cl)cc2C(F)(F)F)c1 [Example 148, 5-[1-(4-Chloro-2-trifluoromethyl-benzyl)-1H-indazol-5-ylmethylene]-2-thiomorpholin-4-yl-thiazol-4-one] | 33
O=C1N=C(N2CC(F)C2)S/C1=C\c1ccc2c(cnn2Cc2ccc(Cl)cc2C(F)(F)F)c1 [Example 149, 5-[1-(4-Chloro-2-trifluoromethyl-benzyl)-1H-indazol-5-ylmethylene]-2-(3-fluoro-azetidin-1-yl)-thiazol-4-one] | 55
O=C1N=C(N2CCC(n3cnnn3)CC2)S/C1=C\c1ccc2c(cnn2Cc2ccc(Cl)cc2C(F)(F)F)c1 [Example 150, 5-[1-(4-Chloro-2-trifluoromethyl-benzyl)-1H-indazol-5-ylmethylene]-2-(4-tetrazol-1-yl-piperidin-1-yl)-thiazol-4-one] | 48
O=C1N=C(N2CCNCC(O)C2)S/C1=C\c1ccc2c(cnn2Cc2ccc(C(F)(F)F)cc2C(F)(F)F)c1 (stereo not drawn) [Example 151, 5-[1-(2,4-Bis-trifluoromethyl-benzyl)-1H-indazol-5-ylmethylene]-2-(6-hydroxy-[1,4]diazepan-1-yl)thiazol-4-one] | 25.7
COC(=O)CCNC(=O)C1CN(C2=NC(=O)/C(=C/c3ccc4c(cnn4Cc4ccc(Cl)cc4C(F)(F)F)c3)S2)C1 [Example 152, 3-[(1-{5-[1-(4-Chloro-2-trifluoromethyl-benzyl)-1H-indazol-5-ylmethylene]-4-oxo-4,5-dihydro-thiazol-2-yl}-azetidine-3-carbonyl)-amino]-propionic acid methyl ester] | 24
COC(=O)CCNC(=O)C1CN(C2=NC(=O)/C(=C/c3ccc4c(cnn4Cc4ccc(C(F)(F)F)cc4C(F)(F)F)c3)S2)C1 [Example 153, 3-[(1-{5-[1-(2,4-Bis-trifluoromethyl-benzyl)-1H-indazol-5-ylmethylene]-4-oxo-4,5-dihydro-thiazol-2-yl}-azetidine-3-carbonyl)-amino]-propionic acid methyl ester] | 44
NC1(C(=O)O)CCN(C2=NC(=O)/C(=C/c3ccc4c(cnn4Cc4ccc(Cl)cc4C(F)(F)F)c3)S2)CC1 [Example 154, 4-Amino-1-{5-[1-(4-chloro-2-trifluoromethyl-benzyl)-1H-indazol-5-ylmethylene]-4-oxo-4,5-dihydro-thiazol-2-yl}-piperidine-4-carboxylic acid] | 26.2

Further lines, results first:

EC50 [nM] | SMILES
34 | CC(=O)N(C)C1CCN(C2=NC(=O)/C(=C/c3ccc4c(cnn4Cc4ccc(Cl)cc4C(F)(F)F)c3)S2)CC1 [Example 155, N-(1-{5-[1-(4-Chloro-2-trifluoromethyl-benzyl)-1H-indazol-5-ylmethylene]-4-oxo-4,5-dihydro-thiazol-2-yl}-piperidin-4-yl)-N-methyl-acetamide]
58 | CCOC(=O)C1(N)CCN(C2=NC(=O)/C(=C/c3ccc4c(cnn4Cc4ccc(Cl)cc4C(F)(F)F)c3)S2)CC1 [Example 156, 4-Amino-1-{5-[1-(4-chloro-2-trifluoromethyl-benzyl)-1H-indazol-5-ylmethylene]-4-oxo-4,5-dihydro-thiazol-2-yl}-piperidine-4-carboxylic acid ethyl ester]
35 | O=C1N=C(N2CCC(n3cccn3)CC2)S/C1=C\c1ccc2c(cnn2Cc2ccc(Cl)cc2C(F)(F)F)c1 [Example 157, 5-[1-(4-Chloro-2-trifluoromethyl-benzyl)-1H-indazol-5-ylmethylene]-2-(4-pyrazol-1-yl-piperidin-1-yl)-thiazol-4-one]
32 | O=C1N=C(N2CCC(n3cncn3)CC2)S/C1=C\c1ccc2c(cnn2Cc2ccc(Cl)cc2C(F)(F)F)c1 [Example 158, 5-[1-(4-Chloro-2-trifluoromethyl-benzyl)-1H-indazol-5-ylmethylene]-2-(4-[1,2,4]triazol-1-yl-piperidin-1-yl)-thiazol-4-one]
36 | O=C1N=C(N2CCC(n3ccnc3)CC2)S/C1=C\c1ccc2c(cnn2Cc2ccc(Cl)cc2C(F)(F)F)c1 [Example 159, 5-[1-(4-Chloro-2-trifluoromethyl-benzyl)-1H-indazol-5-ylmethylene]-2-(4-imidazol-1-yl-piperidin-1-yl)-thiazol-4-one]
22 | CCNC(=O)NC1CCN(C2=NC(=O)/C(=C/c3ccc4c(cnn4Cc4ccc(C(F)(F)F)cc4C(F)(F)F)c3)S2)CC1 [Example 160, 1-(1-{5-[1-(2,4-Bis-trifluoromethyl-benzyl)-1H-indazol-5-ylmethylene]-4-oxo-4,5-dihydro-thiazol-2-yl}-piperidin-4-yl)-3-ethyl-urea]
24.8 | CNC1CCCCN(C2=NC(=O)/C(=C/c3ccc4c(cnn4Cc4ccc(Cl)cc4C(F)(F)F)c3)S2)C1 (stereo not drawn) [Example 161, 5-[1-(4-Chloro-2-trifluoromethyl-benzyl)-1H-indazol-5-ylmethylene]-2-(3-methylamino-azepan-1-yl)-thiazol-4-one]
27 | O=C1N=C(N2CCCC2)S/C1=C\c1ccc2c(cnn2Cc2ccc(Cl)cc2C(F)(F)F)c1 [Example 162, 5-[1-(4-Chloro-2-trifluoromethyl-benzyl)-1H-indazol-5-ylmethylene]-2-pyrrolidin-1-yl-thiazol-4-one]
26 | CN(C)CC1(O)CCN(C2=NC(=O)/C(=C/c3ccc4c(cnn4Cc4ccc(Cl)cc4C(F)(F)F)c3)S2)CC1 [Example 163, 5-[1-(4-Chloro-2-trifluoromethyl-benzyl)-1H-indazol-5-ylmethylene]-2-(4-dimethylaminomethyl-4-hydroxy-piperidin-1-yl)-thiazol-4-one]
12 | O=C1N=C(N2CCC(O)(Cn3ccnc3)CC2)S/C1=C\c1ccc2c(cnn2Cc2ccc(Cl)cc2C(F)(F)F)c1 [Example 164, 5-[1-(4-Chloro-2-trifluoromethyl-benzyl)-1H-indazol-5-ylmethylene]-2-(4-hydroxy-4-imidazol-1-ylmethyl-piperidin-1-yl)-thiazol-4-one]
18 | CCC1(O)CCCN(C2=NC(=O)/C(=C/c3ccc4c(cnn4Cc4ccc(Cl)cc4C(F)(F)F)c3)S2)C1 (stereo not drawn) [Example 165, 5-[1-(4-Chloro-2-trifluoromethyl-benzyl)-1H-indazol-5-ylmethylene]-2-(3-ethyl-3-hydroxy-piperidin-1-yl)-thiazol-4-one]
19 | O=C1N=C(N2CCC(N3CCCC(O)C3)CC2)S/C1=C\c1ccc2c(cnn2Cc2ccc(Cl)cc2C(F)(F)F)c1 (stereo not drawn) [Example 166, 5-[1-(4-Chloro-2-trifluoromethyl-benzyl)-1H-indazol-5-ylmethylene]-2-(3-hydroxy-[1,4′]bipiperidinyl-1′-yl)-thiazol-4-one]
16 | O=C1N=C(N2CCC3(CC2)NCNC3=O)S/C1=C\c1ccc2c(cnn2Cc2ccc(Cl)cc2C(F)(F)F)c1 [Example 167, 8-{5-[1-(4-Chloro-2-trifluoromethyl-benzyl)-1H-indazol-5-ylmethylene]-4-oxo-4,5-dihydro-thiazol-2-yl}-1,3,8-triaza-spiro[4.5]decan-4-one]
